Assay results reported in ChEMBL document CHEMBL4818994, “Uncompetitive nanomolar dimeric indenoindole inhibitors of the human breast cancer resistance pump ABCG2” (Eur J Med Chem, 2021).

Columns and labels:
[1] = biological target: T1, Broad substrate specificity ATP-binding cassette transporter ABCG2 (Homo sapiens, UniProt Q9UNQ0); assay: Inhibition of human ABCG2 transfected in human HEK293 cells assessed as inhibition of mitoxantrone efflux measured after 30 mins by FACS Calibur cytometric analysis; assay type: cell-based
T1 sequence (Q9UNQ0 whole entry): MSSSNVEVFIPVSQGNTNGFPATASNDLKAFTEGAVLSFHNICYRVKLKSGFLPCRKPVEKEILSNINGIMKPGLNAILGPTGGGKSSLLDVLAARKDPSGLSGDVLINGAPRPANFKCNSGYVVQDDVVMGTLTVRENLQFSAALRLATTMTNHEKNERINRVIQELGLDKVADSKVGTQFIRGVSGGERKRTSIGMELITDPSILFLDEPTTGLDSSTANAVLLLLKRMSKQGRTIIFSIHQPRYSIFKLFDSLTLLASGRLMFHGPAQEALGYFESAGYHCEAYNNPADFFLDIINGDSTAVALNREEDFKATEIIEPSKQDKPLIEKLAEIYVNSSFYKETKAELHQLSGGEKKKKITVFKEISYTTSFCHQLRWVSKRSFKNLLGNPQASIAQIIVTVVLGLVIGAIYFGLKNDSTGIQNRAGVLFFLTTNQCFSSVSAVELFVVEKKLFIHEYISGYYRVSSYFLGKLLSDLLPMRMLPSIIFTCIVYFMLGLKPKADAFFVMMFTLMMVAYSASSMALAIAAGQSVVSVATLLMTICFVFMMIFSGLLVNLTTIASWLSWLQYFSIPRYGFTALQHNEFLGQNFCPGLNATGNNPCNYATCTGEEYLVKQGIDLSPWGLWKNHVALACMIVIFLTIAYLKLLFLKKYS

[2] = biological target: T1, Broad substrate specificity ATP-binding cassette transporter ABCG2; assay: Mixed inhibition of human ABCG2 transfected in human HEK293 cells assessed as Ki2 for inhibition of mitoxantrone efflux measured after 30 mins by FACS Calibur cytometric analysis; assay type: cell-based
[3] = biological target: T1, Broad substrate specificity ATP-binding cassette transporter ABCG2; assay: Mixed inhibition of human ABCG2 transfected in human HEK293 cells assessed as Ki1 for inhibition of mitoxantrone efflux measured after 30 mins by FACS Calibur cytometric analysis; assay type: cell-based
[4] = biological target: T1, Broad substrate specificity ATP-binding cassette transporter ABCG2; assay: Uncompetitive inhibition of human ABCG2 transfected in human HEK293 cells assessed as Ki2 for inhibition of mitoxantrone efflux measured after 30 mins by FACS Calibur cytometric analysis; assay type: cell-based
ABCG2 [5] = assay: Therapeutic ratio of IG50 for growth inhibition of human HEK293 cells to IC50 for inhibition of human ABCG2 expressed in human HEK293 cells; assay type: toxicity, cell-based
[6] = biological target: T1, Broad substrate specificity ATP-binding cassette transporter ABCG2; assay: Mixed inhibition of human ABCG2 transfected in human HEK293 cells assessed as Ki1 for inhibition of Hoechst33342 efflux measured after 30 mins by FACS Calibur cytometric analysis; assay type: cell-based
ABCG2 [7] = assay: Therapeutic ratio of IG50 for growth inhibition of human HEK293 cells overexpressing human ABCG2 to IC50 for inhibition of human ABCG2 expressed in human HEK293 cells; assay type: toxicity, cell-based
[8] = biological target: T2, ATP-dependent translocase ABCB1 (Homo sapiens, UniProt P08183); assay: Inhibition of human P-gp1 transfected in mouse NIH3T3 cells assessed as inhibition of Calcein-AM efflux measured after 30 mins by FACS Calibur cytometric analysis; assay type: cell-based; settings: nih3t3, 0.5 h
[9] = biological target: Multidrug resistance-associated protein 1 (Homo sapiens, UniProt P33527); assay: Inhibition of human MRP1 transfected in human HEK293 cells assessed as inhibition of Calcein-AM efflux measured after 30 mins by FACS Calibur cytometric analysis; assay type: cell-based; settings: hek293, 0.5 h
[10] = Growth inhibition of human HEK293 cells after 72 hrs by MTT assay; assay type: cell-based; settings: read-out: IG50
[11] = biological target: T1, Broad substrate specificity ATP-binding cassette transporter ABCG2; assay: Mixed inhibition of human ABCG2 transfected in human HEK293 cells assessed as Ki2 for inhibition of Hoechst33342 efflux measured after 30 mins by FACS Calibur cytometric analysis; assay type: cell-based
[12] = Growth inhibition of human HEK293 cells overexpressing human ABCG2 after 72 hrs by MTT assay; assay type: ADME, cell-based; settings: read-out: IG50
[13] = biological target: T2, ATP-dependent translocase ABCB1; assay: Inhibition of human P-gp1 transfected in mouse NIH3T3 cells assessed as inhibition of Rhodamine123 efflux measured after 30 mins by FACS Calibur cytometric analysis; assay type: cell-based; settings: nih3t3, 0.5 h
[14] = biological target: T1, Broad substrate specificity ATP-binding cassette transporter ABCG2; assay: Non-competitive inhibition of human ABCG2 transfected in human HEK293 cells assessed as Ki2 for inhibition of mitoxantrone efflux measured after 30 mins by FACS Calibur cytometric analysis; assay type: cell-based

T2 sequence (P08183 whole entry): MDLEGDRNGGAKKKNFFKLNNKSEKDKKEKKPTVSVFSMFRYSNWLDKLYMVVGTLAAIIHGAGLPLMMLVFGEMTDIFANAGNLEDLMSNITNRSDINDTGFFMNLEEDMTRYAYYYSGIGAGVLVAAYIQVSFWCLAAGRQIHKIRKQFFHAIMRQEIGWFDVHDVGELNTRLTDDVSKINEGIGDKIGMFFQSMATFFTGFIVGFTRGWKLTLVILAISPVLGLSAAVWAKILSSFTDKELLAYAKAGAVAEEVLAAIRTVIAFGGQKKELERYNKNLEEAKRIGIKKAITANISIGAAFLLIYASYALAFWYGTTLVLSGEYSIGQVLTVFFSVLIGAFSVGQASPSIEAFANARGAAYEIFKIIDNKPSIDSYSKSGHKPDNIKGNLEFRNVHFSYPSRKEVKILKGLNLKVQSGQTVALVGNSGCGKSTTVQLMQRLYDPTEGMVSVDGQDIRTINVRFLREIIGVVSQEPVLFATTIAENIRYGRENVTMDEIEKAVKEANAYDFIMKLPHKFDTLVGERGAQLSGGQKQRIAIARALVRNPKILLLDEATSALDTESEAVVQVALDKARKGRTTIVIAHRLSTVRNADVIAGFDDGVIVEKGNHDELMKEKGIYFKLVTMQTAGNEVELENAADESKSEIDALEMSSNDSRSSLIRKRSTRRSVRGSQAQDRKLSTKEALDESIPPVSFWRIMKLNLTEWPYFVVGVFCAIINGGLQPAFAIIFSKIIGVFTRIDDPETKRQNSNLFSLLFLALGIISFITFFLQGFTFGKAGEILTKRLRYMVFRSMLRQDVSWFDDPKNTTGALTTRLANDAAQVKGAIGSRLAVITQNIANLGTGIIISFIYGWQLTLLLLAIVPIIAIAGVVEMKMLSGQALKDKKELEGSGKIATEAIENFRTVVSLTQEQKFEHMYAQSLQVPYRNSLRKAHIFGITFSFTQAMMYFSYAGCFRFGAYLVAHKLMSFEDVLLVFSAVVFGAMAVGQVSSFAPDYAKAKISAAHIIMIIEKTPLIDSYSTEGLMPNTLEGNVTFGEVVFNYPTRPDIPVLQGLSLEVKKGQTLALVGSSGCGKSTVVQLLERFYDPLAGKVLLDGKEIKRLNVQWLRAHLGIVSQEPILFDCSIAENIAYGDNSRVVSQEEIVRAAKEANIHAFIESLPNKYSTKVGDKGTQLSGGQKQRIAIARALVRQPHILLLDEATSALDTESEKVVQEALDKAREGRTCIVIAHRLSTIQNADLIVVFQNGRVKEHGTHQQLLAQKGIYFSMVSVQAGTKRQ
Multidrug resistance-associated protein 1, sequence (P33527 whole entry): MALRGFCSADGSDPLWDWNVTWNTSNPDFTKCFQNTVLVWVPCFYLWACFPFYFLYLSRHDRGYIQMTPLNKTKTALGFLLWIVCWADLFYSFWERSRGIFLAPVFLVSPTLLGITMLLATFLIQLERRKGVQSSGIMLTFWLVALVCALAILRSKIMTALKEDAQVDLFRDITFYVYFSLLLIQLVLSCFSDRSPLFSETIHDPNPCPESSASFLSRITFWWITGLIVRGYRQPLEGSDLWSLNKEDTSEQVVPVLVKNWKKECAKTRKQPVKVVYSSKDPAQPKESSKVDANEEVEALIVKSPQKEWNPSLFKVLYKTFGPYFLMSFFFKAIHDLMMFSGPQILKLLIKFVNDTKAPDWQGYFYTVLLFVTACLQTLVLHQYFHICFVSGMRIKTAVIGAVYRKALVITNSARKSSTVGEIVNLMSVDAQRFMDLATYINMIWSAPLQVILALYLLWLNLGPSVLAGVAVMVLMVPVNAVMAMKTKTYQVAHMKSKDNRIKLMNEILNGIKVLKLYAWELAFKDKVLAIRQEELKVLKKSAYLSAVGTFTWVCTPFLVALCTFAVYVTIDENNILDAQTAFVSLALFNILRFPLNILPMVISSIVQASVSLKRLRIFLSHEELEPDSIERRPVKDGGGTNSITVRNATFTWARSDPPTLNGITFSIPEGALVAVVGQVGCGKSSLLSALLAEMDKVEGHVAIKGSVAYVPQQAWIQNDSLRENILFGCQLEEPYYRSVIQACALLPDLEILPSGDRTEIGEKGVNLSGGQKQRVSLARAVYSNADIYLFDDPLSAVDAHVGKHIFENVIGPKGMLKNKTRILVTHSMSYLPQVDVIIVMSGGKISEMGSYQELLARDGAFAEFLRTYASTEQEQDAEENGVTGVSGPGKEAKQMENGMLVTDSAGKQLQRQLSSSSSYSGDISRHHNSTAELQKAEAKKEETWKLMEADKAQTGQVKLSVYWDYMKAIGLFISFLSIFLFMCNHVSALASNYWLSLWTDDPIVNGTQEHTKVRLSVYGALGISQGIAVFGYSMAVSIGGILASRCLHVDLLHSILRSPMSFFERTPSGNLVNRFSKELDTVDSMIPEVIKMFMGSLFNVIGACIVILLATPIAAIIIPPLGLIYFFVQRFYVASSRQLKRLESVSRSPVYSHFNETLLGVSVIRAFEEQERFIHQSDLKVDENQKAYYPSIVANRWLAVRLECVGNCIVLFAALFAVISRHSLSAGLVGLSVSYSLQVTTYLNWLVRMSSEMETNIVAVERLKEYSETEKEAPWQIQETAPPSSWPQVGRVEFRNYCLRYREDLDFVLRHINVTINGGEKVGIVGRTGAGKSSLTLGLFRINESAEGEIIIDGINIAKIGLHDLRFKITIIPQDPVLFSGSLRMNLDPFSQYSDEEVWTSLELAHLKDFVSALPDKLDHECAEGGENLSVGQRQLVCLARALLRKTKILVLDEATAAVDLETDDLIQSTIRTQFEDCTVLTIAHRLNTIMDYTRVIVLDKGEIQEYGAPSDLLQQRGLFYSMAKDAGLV

CC1CC(=O)c2c3c(n(CCc4ccccc4)c2C1)-c1ccccc1C3=O (stereo unspecified)
IC50 [1]: 0.768 µM | Ki [2]: 0.843 µM | Ki [3]: 0.323 µM

CC1CC(=O)c2c3c(n(CCc4ccccc4)c2C1)-c1cc(OCCCCCCCCOc2ccc4c(c2)-c2c(c5c(n2CCc2ccccc2)CC(C)CC5=O)C4=O)ccc1C3=O (stereo unspecified)
IC50 [1]: > 10 µM

CC1CC(=O)c2c3c(n(CCc4ccccc4)c2C1)-c1cc(OCCCCCCCCCCCCOc2ccc4c(c2)-c2c(c5c(n2CCc2ccccc2)CC(C)CC5=O)C4=O)ccc1C3=O (stereo unspecified)
IC50 [1]: > 10 µM

COc1cccc(CCn2c3c(c4c(OCCCCOc5cccc6c5c5c(n6CCc6cccc(OC)c6)-c6ccccc6C5=O)cccc42)C(=O)c2ccccc2-3)c1
Ki [4]: 0.017 µM | IC50 [1]: 0.0241 µM | selectivity ratio (ABCG2 [5]): 3300 | Ki [6]: 0.113 µM | selectivity ratio (ABCG2 [7]): 2160 | inhibition (INH) [8]: Not Active | inhibition (INH) [9]: Not Active | GI50 at 72 h [10]: 79.6 µM | Ki [11]: 0.029 µM | GI50 at 72 h [12]: 51.8 µM

CC1CC(=O)c2c3c(n(CCc4ccccc4)c2C1)-c1cc(OCCCCOc2ccc4c(c2)-c2c(c5c(n2CCc2ccccc2)CC(C)CC5=O)C4=O)ccc1C3=O (stereo unspecified)
IC50 [1]: 0.867 µM | selectivity ratio (ABCG2 [5]): 126 | selectivity ratio (ABCG2 [7]): 126 | inhibition (INH) [8]: Not Active | inhibition (INH) [9]: Not Active | GI50 at 72 h [10]: 109 µM | GI50 at 72 h [12]: 109 µM

COc1cccc(CCn2c3c(c4c(OCCCCCCOc5cccc6c5c5c(n6CCc6cccc(OC)c6)-c6ccccc6C5=O)cccc42)C(=O)c2ccccc2-3)c1
IC50 [1]: 0.0274 µM | selectivity ratio (ABCG2 [5]): ≥ 70000 | selectivity ratio (ABCG2 [7]): ≥ 70000 | inhibition (INH) [8]: Not Active | inhibition (INH) [9]: Not Active

COc1cccc(CCn2c3c(c4c(OCCCCCCCCCCCCOc5cccc6c5c5c(n6CCc6cccc(OC)c6)-c6ccccc6C5=O)cccc42)C(=O)c2ccccc2-3)c1
IC50 [1]: > 10 µM

COc1cccc(CCn2c3c(c4c(OCCCCCCCCCCOc5ccc6c(c5)-c5c(c7c(n5CCc5ccccc5)CC(C)CC7=O)C6=O)cccc42)C(=O)c2ccccc2-3)c1 (stereo unspecified)
IC50 [1]: > 10 µM

COc1cccc(CCn2c3c(c4c(OCCOc5ccc6c(c5)-c5c(c7c(n5CCc5ccccc5)CC(C)CC7=O)C6=O)cccc42)C(=O)c2ccccc2-3)c1 (stereo unspecified)
IC50 [1]: 0.068 µM | selectivity ratio (ABCG2 [5]): 3250 | selectivity ratio (ABCG2 [7]): 3250 | inhibition (INH) [13]: Active | GI50 at 72 h [10]: 221 µM | GI50 at 72 h [12]: 221 µM

COc1cccc(CCn2c3c(c4c(OCCCCCCCCOc5ccc6c(c5)-c5c(c7c(n5CCc5ccccc5)CC(C)CC7=O)C6=O)cccc42)C(=O)c2ccccc2-3)c1 (stereo unspecified)
IC50 [1]: 0.389 µM | selectivity ratio (ABCG2 [5]): > 52 | selectivity ratio (ABCG2 [7]): > 52 | inhibition (INH) [8]: Not Active | inhibition (INH) [9]: Not Active | GI50 at 72 h [10]: > 20 µM | GI50 at 72 h [12]: > 20 µM

COc1cccc(CCn2c3c(c4c(OCCCCCCCCCCCCOc5ccc6c(c5)-c5c(c7c(n5CCc5ccccc5)CC(C)CC7=O)C6=O)cccc42)C(=O)c2ccccc2-3)c1 (stereo unspecified)
IC50 [1]: > 10 µM

COc1cccc(CCn2c3c(c4c(OCCCCOc5ccc6c(c5)-c5c(c7c(n5CCc5ccccc5)CC(C)CC7=O)C6=O)cccc42)C(=O)c2ccccc2-3)c1 (stereo unspecified)
IC50 [1]: 0.133 µM | selectivity ratio (ABCG2 [5]): 2230 | selectivity ratio (ABCG2 [7]): 2230 | inhibition (INH) [8]: Not Active | inhibition (INH) [9]: Not Active | GI50 at 72 h [10]: 295 µM | GI50 at 72 h [12]: 295 µM

CC1CC(=O)c2c3c(n(CCc4ccccc4)c2C1)-c1cc(OCCCCCCCCCCOc2ccc4c(c2)-c2c(c5c(n2CCc2ccccc2)CC(C)CC5=O)C4=O)ccc1C3=O (stereo unspecified)
IC50 [1]: > 10 µM

CC1CC(=O)c2c3c(n(CCc4ccccc4)c2C1)-c1cc(OCCCCCCOc2ccc4c(c2)-c2c(c5c(n2CCc2ccccc2)CC(C)CC5=O)C4=O)ccc1C3=O (stereo unspecified)
IC50 [1]: > 10 µM

COc1cccc(CCn2c3c(c4c(OCCCCCCCCOc5cccc6c5c5c(n6CCc6cccc(OC)c6)-c6ccccc6C5=O)cccc42)C(=O)c2ccccc2-3)c1
IC50 [1]: > 10 µM

COc1cccc(CCn2c3c(c4c(OCCCCCCCCCCOc5cccc6c5c5c(n6CCc6cccc(OC)c6)-c6ccccc6C5=O)cccc42)C(=O)c2ccccc2-3)c1
IC50 [1]: > 10 µM

COc1cccc(CCn2c3c(c4c(OCCOc5cccc6c5c5c(n6CCc6cccc(OC)c6)-c6ccccc6C5=O)cccc42)C(=O)c2ccccc2-3)c1
IC50 [1]: 0.0384 µM | selectivity ratio (ABCG2 [5]): ≥ 2630 | inhibition (INH) [8]: Not Active | inhibition (INH) [9]: Not Active | GI50 at 72 h [10]: 917 µM | GI50 at 72 h [12]: > 100 µM

COc1cccc(CCn2c3c(c4c(O)cccc42)C(=O)c2ccccc2-3)c1
Ki [14]: 0.25 µM | IC50 [1]: 0.732 µM | Ki [2]: 0.294 µM | Ki [3]: 0.188 µM

COc1cccc(CCn2c3c(c4c(OCCCCCCOc5ccc6c(c5)-c5c(c7c(n5CCc5ccccc5)CC(C)CC7=O)C6=O)cccc42)C(=O)c2ccccc2-3)c1 (stereo unspecified)
Ki [4]: 0.038 µM | IC50 [1]: 0.0326 µM | Ki [2]: 0.042 µM | selectivity ratio (ABCG2 [5]): > 3070 | Ki [3]: 0.192 µM | selectivity ratio (ABCG2 [7]): > 3070 | inhibition (INH) [8]: Not Active | inhibition (INH) [9]: Not Active | GI50 at 72 h [10]: > 100 µM | GI50 at 72 h [12]: > 100 µM

CC1CC(=O)c2c3c(n(CCc4ccccc4)c2C1)-c1cc(OCCOc2ccc4c(c2)-c2c(c5c(n2CCc2ccccc2)CC(C)CC5=O)C4=O)ccc1C3=O (stereo unspecified)
IC50 [1]: 0.319 µM | selectivity ratio (ABCG2 [5]): 758 | selectivity ratio (ABCG2 [7]): 758 | inhibition (INH) [8]: Not Active | inhibition (INH) [9]: Not Active | GI50 at 72 h [10]: 242 µM | GI50 at 72 h [12]: 242 µM
